In patent US20180237441A1, “Chemical Compounds” (GlaxoSmithKline Intellectual Property (No.2) Limited, priority 2015, published 2018):

target: T1, PERK (Homo sapiens, UniProt Q9NZJ5); assay: PERK enzyme assay (HTRF); format: biochemical; details: 500 μM ATP; at least one experimental run; read-out: PERK Enzyme (500 μM ATP) IC50
T1 sequence (Q9NZJ5 30-1116): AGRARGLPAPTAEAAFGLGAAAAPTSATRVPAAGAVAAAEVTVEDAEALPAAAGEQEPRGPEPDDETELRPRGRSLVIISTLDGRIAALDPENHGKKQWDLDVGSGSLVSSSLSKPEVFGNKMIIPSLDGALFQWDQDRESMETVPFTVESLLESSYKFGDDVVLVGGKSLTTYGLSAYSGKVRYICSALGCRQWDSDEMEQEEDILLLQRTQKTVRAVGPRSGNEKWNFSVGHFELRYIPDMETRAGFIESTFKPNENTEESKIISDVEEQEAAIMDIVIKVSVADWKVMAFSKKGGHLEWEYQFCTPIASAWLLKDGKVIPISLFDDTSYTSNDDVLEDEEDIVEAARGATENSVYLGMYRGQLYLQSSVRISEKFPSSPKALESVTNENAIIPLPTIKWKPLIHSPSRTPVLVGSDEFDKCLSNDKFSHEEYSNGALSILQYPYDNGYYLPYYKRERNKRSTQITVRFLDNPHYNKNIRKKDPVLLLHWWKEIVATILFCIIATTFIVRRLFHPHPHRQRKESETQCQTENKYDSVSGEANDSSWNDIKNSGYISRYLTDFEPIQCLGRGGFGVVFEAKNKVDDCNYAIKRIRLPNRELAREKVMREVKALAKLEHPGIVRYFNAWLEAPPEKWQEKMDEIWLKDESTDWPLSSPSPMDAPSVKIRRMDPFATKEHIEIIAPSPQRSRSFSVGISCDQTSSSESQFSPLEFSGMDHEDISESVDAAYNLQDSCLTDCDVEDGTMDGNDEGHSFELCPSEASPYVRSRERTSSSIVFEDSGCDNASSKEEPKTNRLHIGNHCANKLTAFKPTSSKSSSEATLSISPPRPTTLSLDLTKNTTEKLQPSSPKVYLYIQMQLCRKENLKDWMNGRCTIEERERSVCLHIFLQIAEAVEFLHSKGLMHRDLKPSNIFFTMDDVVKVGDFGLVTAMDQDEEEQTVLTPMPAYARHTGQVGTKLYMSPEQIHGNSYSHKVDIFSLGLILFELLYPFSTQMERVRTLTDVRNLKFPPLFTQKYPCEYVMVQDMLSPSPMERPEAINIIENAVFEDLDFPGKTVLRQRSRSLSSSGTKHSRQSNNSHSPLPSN
Method in brief: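 HTRF read-out after 2 h of EDTA-quenched reactions, detecting phospho-eIF2α with Eu/APC reagents, gave IC50 values. Reaction: 0.75 nM GST-PERK, 30–60 min compound pre-incubation (max 1% DMSO), then 60 min with 40 nM biotin-eIF2α and 500 μM ATP, HEPES pH 7.5 buffer.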

| Structure (SMILES) | IC50 [nM] |
| --- | --- |
| CC(C)CN1C(=O)N(c2ccc(-c3cn(C)c4ncnc(N)c34)c(F)c2)CC1c1cc(F)ccc1F (stereo not shown) [Example 14, 1-(4-(4-amino-7-methyl-7H-pyrrolo[2,3-d]pyrimidin-5-yl)-3-fluorophenyl)-4-(2,5-difluorophenyl)-3-isobutylimidazolidin-2-one] | 903 |
| CN1C(=O)N(c2ccc(-c3cn(C4CC4)c4ncnc(N)c34)c(F)c2)CC1c1ccc(F)cc1F (single isomer, unassigned) [Example 154, 1-(4-(4-amino-7-cyclopropyl-7H-pyrrolo[2,3-d]pyrimidin-5-yl)-3-fluorophenyl)-4-(2,4-difluorophenyl)-3-methylimidazolidin-2-one] | 988 |

same assay, conditions: PERK Enzyme (500 μM ATP) IC50; at least one experimental run; read-out: PERK Activity

| Structure (SMILES) | IC50 [nM] |
| --- | --- |
| CC(C)CN1C(=O)N(c2ccc(-c3cn(C)c4ncnc(N)c34)c(F)c2)CC1c1cc(F)ccc1F (stereo not shown) [Example 14, 1-(4-(4-amino-7-methyl-7H-pyrrolo[2,3-d]pyrimidin-5-yl)-3-fluorophenyl)-4-(2,5-difluorophenyl)-3-isobutylimidazolidin-2-one] | 100 to 1000 |
| CCN1C(=O)N(c2ccc(-c3cn(C)c4nc(C)nc(N)c34)c(F)c2)CC1c1cc(F)ccc1F (single isomer, unassigned) [Example 44, 1-(4-(4-amino-2,7-dimethyl-7H-pyrrolo[2,3-d]pyrimidin-5-yl)-3-fluorophenyl)-4-(2,5-difluorophenyl)-3-ethylimidazolidin-2-one] | < 100 |
| CCN1C(=O)N(c2ccc(-c3cn(C)c4nc(C)nc(N)c34)c(F)c2)CC1c1ccc(F)cc1F (single isomer, unassigned) [Example 67, 1-(4-(4-amino-2,7-dimethyl-7H-pyrrolo[2,3-d]pyrimidin-5-yl)-3-fluorophenyl)-4-(2,4-difluorophenyl)-3-ethylimidazolidin-2-one] | 100 to 1000 |
| CN1C(=O)N(c2ccc(-c3cn(C)c4ncnc(N)c34)c(F)c2)CC1c1cc(F)ccc1F (single isomer, unassigned) [Example 151, 1-(4-(4-amino-7-methyl-7H-pyrrolo[2,3-d]pyrimidin-5-yl)-3-fluorophenyl)-4-(2,5-difluorophenyl)-3-methylimidazolidin-2-one] | 100 to 1000 |
| CN1C(=O)N(c2ccc(-c3cn(C)c4ncnc(N)c34)c(F)c2)CC1c1cc(F)c(F)cc1F (single isomer, unassigned) [Example 158, 1-(4-(4-amino-7-methyl-7H-pyrrolo[2,3-d]pyrimidin-5-yl)-3-fluorophenyl)-3-methyl-4-(2,4,5-trifluorophenyl)imidazolidin-2-one] | < 100 |
| CN1C(=O)N(c2ccc(-c3cn(C)c4ncnc(N)c34)c(F)c2)CC1c1cc(F)cc(F)c1F (single isomer, unassigned) [Example 140, 1-(4-(4-amino-7-methyl-7H-pyrrolo[2,3-d]pyrimidin-5-yl)-3-fluorophenyl)-3-methyl-4-(2,3,5-trifluorophenyl)imidazolidin-2-one] | < 100 |
| CN1C(=O)N(c2ccc(-c3cn(C4CC4)c4ncnc(N)c34)c(F)c2)CC1c1ccc(F)cc1F (single isomer, unassigned) [Example 154, 1-(4-(4-amino-7-cyclopropyl-7H-pyrrolo[2,3-d]pyrimidin-5-yl)-3-fluorophenyl)-4-(2,4-difluorophenyl)-3-methylimidazolidin-2-one] | 100 to 1000 |
| Cn1cc(-c2ccc(N3CC(c4cc(F)ccc4F)NC3=O)cc2F)c2c(N)ncnc21 (stereo not shown) [Example 21, 1-(4-(4-amino-7-methyl-7H-pyrrolo[2,3-d]pyrimidin-5-yl)-3-fluorophenyl)-4-(2,5-difluorophenyl)imidazolidin-2-one] | 100 to 1000 |
| CN1C(=O)N(c2ccc(-c3cn(C)c4ncnc(N)c34)c(F)c2)CC1c1cccc(F)c1F (single isomer, unassigned) [Example 77, 1-(4-(4-amino-7-methyl-7H-pyrrolo[2,3-d]pyrimidin-5-yl)-3-fluorophenyl)-4-(2,3-difluorophenyl)-3-methylimidazolidin-2-one] | < 100 |
| Cc1nc(N)c2c(-c3ccc(N4CC(c5ccc(F)cc5F)N(C)C4=O)cc3F)c(C)n(C)c2n1 (single isomer, unassigned) [Example 10, 1-(4-(4-amino-2,6,7-trimethyl-7H-pyrrolo[2,3-d]pyrimidin-5-yl)-3-fluorophenyl)-4-(2,4-difluorophenyl)-3-methylimidazolidin-2-one] | > 1000 |
| CCN1C(=O)N(c2ccc(-c3cn(C)c4ncnc(N)c34)c(F)c2)CC1c1ccc(F)c(F)c1 (stereo not shown) [Example 97, 1-(4-(4-amino-7-methyl-7H-pyrrolo[2,3-d]pyrimidin-5-yl)-3-fluorophenyl)-4-(3,4-difluorophenyl)-3-ethylimidazolidin-2-one] | < 100 |
